Data reported in paper PMC8405091, “Microwave-assisted Phospha-Michael addition reactions in the 13α-oestrone series and in vitro antiproliferative properties” (Journal of Enzyme Inhibition and Medicinal Chemistry, 2021).

Key:
UPCI-SCC-131 cells = test: MTT antiproliferative assay, UPCI-SCC-131; assay type: cell-based, human; conditions: Homo sapiens, 72 h, 72 h; for inhibition at 10 µM / inhibition at 30 µM: read-out: Growth inhibition, % ± SEM; for inhibition at 10 µM: UPCI-SCC-131, 10 μM; for inhibition at 30 µM: UPCI-SCC-131, 30 μM; for IC50: read-out: calculated IC50 value
Method in brief: (§1)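 Adherent human cancer lines exposed 72 h to 10 or 30 µM compound after overnight attachment. Living cells quantified by mitochondrial MTT conversion. Cisplatin served as positive control.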

UPCI-SCC-154 cells = test: MTT antiproliferative assay, UPCI-SCC-154; assay type: cell-based, human; conditions: Homo sapiens, 72 h, 72 h; for inhibition at 10 µM / inhibition at 30 µM: read-out: Growth inhibition, % ± SEM; for inhibition at 10 µM: UPCI-SCC-154, 10 μM; for inhibition at 30 µM: UPCI-SCC-154, 30 μM; for IC50: read-out: calculated IC50 value
Method in brief: as §1

HeLa cells = test: MTT antiproliferative assay, HeLa; assay type: cell-based, human; conditions: Homo sapiens, 72 h; for inhibition at 10 µM: read-out: Growth inhibition, % ± SEM, 10 μM; for inhibition at 30 µM: read-out: Growth inhibition, % ± SEM, 30 μM; for IC50: read-out: calculated IC50 value
Method in brief: as §1

SiHa cells = test: MTT antiproliferative assay, SiHa; assay type: cell-based, human; conditions: Homo sapiens, 72 h; for inhibition at 10 µM: read-out: Growth inhibition, % ± SEM, 10 μM; for inhibition at 30 µM: read-out: Growth inhibition, % ± SEM, 30 μM; for IC50: read-out: calculated IC50 value
Method in brief: as §1

C33-A cells = test: MTT antiproliferative assay, C33-A; assay type: cell-based, human; conditions: Homo sapiens, C-33-A, 72 h; for inhibition at 10 µM: read-out: Growth inhibition, % ± SEM, C33-A, 10 μM; for inhibition at 30 µM: read-out: Growth inhibition, % ± SEM, C33-A, 30 μM; for IC50: read-out: calculated IC50 value
Method in brief: as §1

A2780 cells = test: MTT antiproliferative assay, A2780; assay type: cell-based, human; conditions: Homo sapiens, A2780, 72 h; for inhibition at 10 µM / inhibition at 30 µM: read-out: Growth inhibition, % ± SEM, 72 h; for inhibition at 10 µM: A2780, 10 μM; for inhibition at 30 µM: A2780, 30 μM; for IC50: read-out: calculated IC50 value
Method in brief: as §1

MCF-7 cells = test: MTT antiproliferative assay, MCF-7; assay type: cell-based, human; conditions: Homo sapiens, MCF7, 72 h; for inhibition at 10 µM / inhibition at 30 µM: read-out: Growth inhibition, % ± SEM, 72 h; for inhibition at 10 µM: MCF-7, 10 μM; for inhibition at 30 µM: MCF-7, 30 μM; for IC50: read-out: calculated IC50 value
Method in brief: as §1

MDA-MB-231 cells = test: MTT antiproliferative assay, MDA-MB-231; assay type: cell-based, human; conditions: Homo sapiens, MDA-MB-231, 72 h; for inhibition at 10 µM / inhibition at 30 µM: read-out: Growth inhibition, % ± SEM; for IC50: read-out: calculated IC50 value
Method in brief: as §1

T47D cells = test: MTT antiproliferative assay, T47D; assay type: cell-based, human; conditions: Homo sapiens, 72 h; for inhibition at 10 µM: read-out: Growth inhibition, % ± SEM, 10 μM; for inhibition at 30 µM: read-out: Growth inhibition, % ± SEM, 30 μM; for IC50: read-out: calculated IC50 value
Method in brief: as §1

[1] = test system: non-cancerous mouse embryo fibroblast (NIH/3T3) cells; test: MTT assay on non-cancerous fibroblasts (tumour selectivity); assay type: cell-based; conditions: Mus musculus, NIH3T3, 72 h; for inhibition at 10 µM / inhibition at 30 µM: read-out: Growth inhibition, % ± SEM; for IC50: read-out: calculated IC50 value
Procedure: (§2) The antiproliferative properties of the newly synthesized compounds (9–20) and their starting materials (4 and 5) were determined on a panel of human adherent cancer cell lines. MCF-7, MDA-MB-231 and T47D were isolated from breast cancers differing in biochemical background, while A2780 cells were isolated from ovarian cancer. HeLa and SiHa are cervical cancer cell lines positive for HPV-18 and HPV-16, respectively, while C33-A cervical cancer cells are negative for HPV. Moreover, two oropharyngeal cancer cell lines were also utilized: the HPV-negative UPCI-SCC-131 and HPV-16 positive UPCI-SCC-154. The cancer selectivity of compounds was tested on the non-cancerous mouse embryo fibroblast cell line NIH/3T3. All cell lines were purchased from European Collection of Cell Cultures (ECCAC, Salisbury, UK) exception for SiHa and C33-A (American Tissue Culture Collection, Manassas, VA, USA) and HN-SCC-131 and UPCI-SCC-154 (German Collection of Microorganisms and Cell Cultures GmbH, Braunschweig, Germany). Cells were cultivated in minimal essential medium supplemented with 10% fetal bovine serum, 1% non-essential amino acids and an antibiotic–antimycotic mixture. The medium of oropharyngeal cancer cells additionally contained 2.0 mM L-glutamine. All media and supplements were obtained from Lonza Group Ltd., Basel, Switzerland. Near-confluent cancer cells were seeded onto a 96-well microplate at a density of 5,000 cells/well, except for C33-A which were seeded at 10,000/well. After overnight standing, new medium containing the tested compounds at 10 and 30 µM final concentration was added. After incubation for 72 h at 37 °C in humidified air containing 5% CO2, the living cells were assayed by the addition of 20 μL of 5 mg/ml 3-(4,5-dimethylthiazol-2-yl)-2,5-diphenyltetrazolium bromide (MTT) solution. MTT was converted by intact mitochondrial reductase and precipitated as purple crystals during a 4-h contact period. The medium was next removed and the precipitated formazan crystals were dissolved in 100 μL of DMSO during a 60-min period of shaking at 37 ^оC.
All in vitro experiments were carried out twice with five parallels. Stock solutions of the tested substances (10 mM) were prepared in DMSO. […] Cisplatin (Ebewe Pharma GmbH, Unterach, Austria) was used as positive control.

[2] = test system: panel of human adherent cancer cell lines; test: MTT antiproliferative assay, whole panel of cell lines; assay type: cell-based; conditions: read-out: IC50 (span over the panel)
Procedure: as §2, with “^оC. […]” for “^оC.”

[3] = test system: certain cancer cell lines; set-up: method as in PMID 25845933; conditions: cited from earlier work

Compound: COc1ccc2c(c1)CC[C@@H]1[C@@H]2CC[C@@]2(C)C(=O)[C@H](CP(=O)(c3ccc(C)cc3)c3ccc(C)cc3)C[C@@H]12 [Compound 13, [(3-methoxy-17-oxo-13α-oestra-1,3,5(10)-trien-16α-yl)methyl]di-p-tolylphosphine oxide]
- inhibition at 10 µM (UPCI-SCC-131 cells): 29.9 ± 1.21%
- inhibition at 30 µM (UPCI-SCC-131 cells): 97.02 ± 0.43%
- IC50 (UPCI-SCC-131 cells): 12.3 µM
- inhibition at 10 µM (UPCI-SCC-154 cells): < 20%
- inhibition at 30 µM (UPCI-SCC-154 cells): 75.9 ± 1.93%
- IC50 (UPCI-SCC-154 cells): 21.5 µM
- inhibition at 10 µM (HeLa cells): < 20%
- inhibition at 30 µM (HeLa cells): 95.69 ± 0.69%
- IC50 (HeLa cells): 14.3 µM
- inhibition at 10 µM (SiHa cells): < 20%
- inhibition at 30 µM (SiHa cells): 92.9 ± 0.85%
- IC50 (SiHa cells): 13.7 µM
- inhibition at 10 µM (C33-A cells): < 20%
- inhibition at 30 µM (C33-A cells): 96.31 ± 0.46%
- IC50 (C33-A cells): 14.5 µM
- inhibition at 10 µM (A2780 cells): < 20%
- inhibition at 30 µM (A2780 cells): 97.77 ± 0.35%
- IC50 (A2780 cells): 23.8 µM
- inhibition at 10 µM (MCF-7 cells): < 20%
- inhibition at 30 µM (MCF-7 cells): 84.9 ± 2.54%
- IC50 (MCF-7 cells): 14.8 µM
- inhibition at 10 µM (MDA-MB-231 cells): < 20%
- inhibition at 30 µM (MDA-MB-231 cells): 95.56 ± 0.67%
- IC50 (MDA-MB-231 cells): 25.8 µM
- inhibition at 10 µM (T47D cells): 26.7 ± 1.95%
- inhibition at 30 µM (T47D cells): 89.82 ± 0.68%
- IC50 (T47D cells): 13.6 µM
- inhibition at 10 µM [1]: < 20%
- inhibition at 30 µM [1]: 89.76 ± 0.49%
- IC50 [1]: 19.3 µM
- IC50 [2]: 10 to 25 µM

Compound: CCc1ccc(-c2cn([C@H]3C[C@H]4[C@@H]5CCc6cc(OCc7ccccc7)ccc6[C@H]5CC[C@@]4(C)[C@@H]3O)nn2)cc1 [Compound 28]
- IC50 [3]: low micromolar range

Compound: C[C@@]12CC[C@@H]3c4ccc(OCc5ccccc5)cc4CC[C@H]3[C@@H]1C[C@H](CP(=O)(c1ccccc1)c1ccccc1)C2=O [Compound 12, [(3-benzyloxy-17-oxo-13α-oestra-1,3,5(10)-trien-16β-yl)methyl]diphenylphosphine oxide]
- inhibition at 10 µM (UPCI-SCC-131 cells): 49.4 ± 2.06%
- inhibition at 30 µM (UPCI-SCC-131 cells): 90 ± 1.15%
- IC50 (UPCI-SCC-131 cells): 14.2 µM
- inhibition at 10 µM (UPCI-SCC-154 cells): < 20%
- inhibition at 30 µM (UPCI-SCC-154 cells): 75.5 ± 1.84%
- IC50 (UPCI-SCC-154 cells): 29.8 µM
- inhibition at 10 µM (HeLa cells): < 20%
- inhibition at 30 µM (HeLa cells): 96.4 ± 1.88%
- IC50 (HeLa cells): 13.6 µM
- inhibition at 10 µM (SiHa cells): < 20%
- inhibition at 30 µM (SiHa cells): 94.8 ± 1.48%
- IC50 (SiHa cells): 14.1 µM
- inhibition at 10 µM (C33-A cells): < 20%
- inhibition at 30 µM (C33-A cells): 97.68 ± 0.85%
- IC50 (C33-A cells): 13.6 µM
- inhibition at 10 µM (A2780 cells): < 20%
- inhibition at 30 µM (A2780 cells): 97.14 ± 0.55%
- IC50 (A2780 cells): 28.5 µM
- inhibition at 10 µM (MCF-7 cells): < 20%
- inhibition at 30 µM (MCF-7 cells): 90.2 ± 1.61%
- IC50 (MCF-7 cells): 16.4 µM
- inhibition at 10 µM (MDA-MB-231 cells): < 20%
- inhibition at 30 µM (MDA-MB-231 cells): 84 ± 2.61%
- IC50 (MDA-MB-231 cells): 24.5 µM
- inhibition at 10 µM (T47D cells): 31.4 ± 1.55%
- inhibition at 30 µM (T47D cells): 75 ± 1.65%
- IC50 (T47D cells): 17 µM
- inhibition at 10 µM [1]: < 20%
- inhibition at 30 µM [1]: 48.3 ± 1.65%
- IC50 [1]: 30.9 µM
- IC50 [2]: 13.6 to 29.8 µM
